“Also recorded” adds a separate entry of the source. Where two headings read alike, the source gives them in different places.
What was measured:
[1] = biological target: T1, hAR (Homo sapiens, UniProt P10275); assay: lacZ-based; type: cell-based
T1 sequence (P10275 1-920): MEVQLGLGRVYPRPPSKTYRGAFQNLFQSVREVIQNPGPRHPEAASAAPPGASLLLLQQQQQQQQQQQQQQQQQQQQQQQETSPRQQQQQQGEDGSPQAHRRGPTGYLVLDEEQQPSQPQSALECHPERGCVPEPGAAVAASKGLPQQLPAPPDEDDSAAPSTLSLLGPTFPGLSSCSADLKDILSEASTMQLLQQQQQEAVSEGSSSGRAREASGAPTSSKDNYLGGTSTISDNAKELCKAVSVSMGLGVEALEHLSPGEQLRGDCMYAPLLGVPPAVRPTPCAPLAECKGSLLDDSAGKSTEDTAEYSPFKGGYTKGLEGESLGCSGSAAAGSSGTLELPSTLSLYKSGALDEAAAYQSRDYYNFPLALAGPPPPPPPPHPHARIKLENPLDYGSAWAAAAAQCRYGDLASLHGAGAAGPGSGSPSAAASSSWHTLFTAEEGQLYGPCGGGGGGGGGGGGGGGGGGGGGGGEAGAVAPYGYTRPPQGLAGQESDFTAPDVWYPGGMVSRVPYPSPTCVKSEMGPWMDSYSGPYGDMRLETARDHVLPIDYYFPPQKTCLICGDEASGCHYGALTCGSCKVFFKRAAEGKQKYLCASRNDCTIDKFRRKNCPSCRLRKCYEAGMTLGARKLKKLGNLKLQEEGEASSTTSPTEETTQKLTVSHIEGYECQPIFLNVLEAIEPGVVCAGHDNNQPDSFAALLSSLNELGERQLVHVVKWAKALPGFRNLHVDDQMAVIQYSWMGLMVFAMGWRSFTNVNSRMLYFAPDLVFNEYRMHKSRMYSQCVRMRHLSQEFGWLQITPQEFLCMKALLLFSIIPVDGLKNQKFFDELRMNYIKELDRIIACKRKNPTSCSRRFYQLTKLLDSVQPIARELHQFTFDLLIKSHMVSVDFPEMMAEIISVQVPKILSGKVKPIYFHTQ

[2] = tested on: AR; details: cited from earlier work
[3] = biological target: T2, human androgen receptor (Homo sapiens, UniProt P10275); type: cell-based; details: coexposure with 50 nM 5α-dihydrotestosterone; potency compared with flutamide
T2 sequence (P10275 1-920): T1 sequence (P10275 1-920)

[4] = biological target: T2, human androgen receptor; assay: new yeast androgen bioassay expressing yEGFP in response to androgens; type: cell-based
[5] = β-galactosidase bioassay, relative to 17β-testosterone, NR no response

SMILES	RAP [1, 5]	androgenic activity in MCRG systems (positive systems out of all) [2]	further results
C[C@]12CC[C@H]3[C@@H](CCC4=CC(=O)C=C[C@@]43C)[C@@H]1CC[C@@H]2O [17β-Boldenone]	0.2		
C[C@]12CC[C@@H]3c4ccc(O)cc4CC[C@H]3[C@@H]1CC[C@@H]2O [17β-Estradiol]		ten out of 11	
C[C@]12C=CC3=C4CCC(=O)C=C4CC[C@H]3[C@@H]1CC[C@@H]2O [17β-Trenbolone]	0.9		EC50 [1]: 13 nM
Brc1ccc(Oc2cc(Br)cc(Br)c2)cc1 [BDE-39]			antiandrogenic activity (in words) [3]: clearly less antiandrogenic; agonistic response (in words) [4]: None of these four compounds were able to show an agonistic response
C[C@@H]1C[C@H]2[C@@H]3CCC4=CC(=O)C=C[C@]4(C)[C@@]3(F)[C@@H](O)C[C@]2(C)[C@@]1(O)C(=O)CO [Dexamethasone]		three out of four	
C[C@]12CC[C@@H]3c4ccc(O)cc4CC[C@H]3[C@@H]1CCC2=O [Estrone]			agonistic response (in words) [4]: no agonistic response; also recorded: negative result
C[C@]1(O)CC[C@H]2[C@@H]3CCC4=CC(=O)CCC4=C3C=C[C@@]21C [Methyltrienolone]			RAP [1]: 3.1
CC(=O)[C@H]1CC[C@H]2[C@@H]3CCC4=CC(=O)CC[C@]4(C)[C@H]3CC[C@]12C [Progesterone]		seven out of nine	
CC[C@]1(O)CC[C@H]2[C@@H]3CCC4=CC(=O)CCC4=C3C=C[C@@]21CC [Tetrahydrogestrinone]	1.0		
